Test results taken from US20180271863A1, “TARGETING P2 PURINERGIC RECEPTORS TO TREAT HEPATOCELLULAR CARCINOMA (HCC)” (Baylor College of Medicine, priority 2015, published 2018).

What was measured:
Assay type in all cases: cell-based, human
[1] = tested on: PLC/PRF/5 cells; assay: BrdU incorporation (proliferation) in PLC/PRF/5 cells; conditions: SFM 24 hours, ATP 24 hours
Method: To determine whether P2 purinergic receptor activation influences HCC cell proliferation, BrdU incorporation was assessed in HCC cells maintained in SFM for 24 hours and treated with ATP for 24 hours. ATP treatment alone was sufficient to induce proliferation in each of these cell lines (Huh7, 34%; Hep3B, 46%; SNU-387, 47% and PLC/PRF/5, 24%), identifying nucleotides as liver cancer cell mitogens (FIG. 7A).
Normal human primary hepatocytes isolated from healthy adults (no known history of HCC) in suspension or freshly-frozen prior to shipment (Cryoport Systems, CA) were purchased from Triangle Research Labs, NC. Fresh hepatocytes were plated on collagen-coated tissue culture plates or glass coverslips in Williams E complete media with additives (10% fetal bovine serum, 2 mM glutamine, […] insulin, 4 ng/ml glucagon, […] transferrin, 2.5 ng/ml sodium selenite, 10,000 U/ml penicillin, […] streptomycin, 50 g/ml gentamycin) for 3 h to ensure hepatocyte adherence to plates. […]
Formalin-fixed and paraffin embedded liver sections from HCC patients were analyzed by immunohistochemistry with anti-P2X3 antibody (Abcam, Cambridge, Mass.). […] BrdU positive cells were counted and expressed as a percentage of the total number of cells in ten randomly selected high-power fields (20×) per coverslips.

[2] = tested on: Hep3B cells; assay: MTT assay of cell proliferation and viability, Hep3B; conditions: ATP 100 μM, 18 h
Method: Normal human primary hepatocytes isolated from healthy adults (no known history of HCC) in suspension or freshly-frozen prior to shipment (Cryoport Systems, CA) were purchased from Triangle Research Labs, NC. Fresh hepatocytes were plated on collagen-coated tissue culture plates or glass coverslips in Williams E complete media with additives (10% fetal bovine serum, 2 mM glutamine, […] insulin, 4 ng/ml glucagon, […] transferrin, 2.5 ng/ml sodium selenite, 10,000 U/ml penicillin, […] streptomycin, 50 g/ml gentamycin) for 3 h to ensure hepatocyte adherence to plates. Subsequently, hepatocytes were maintained in Williams E minimal media free from serum and growth factors for 24 h prior to treatment. Human hepatocellular carcinoma derived Huh7, and Hep3B, were cultured in Minimum Essential Medium Eagle (MEM); SNU-387 was cultured in Roswell Park Memorial Institute (RPMI) medium and PLC/PRF/5 cultured in Dulbecco's Modified Eagle's medium (DMEM). All maintenance culture media were supplemented with 10% fetal bovine serum (FBS), L-Glutamine (2 mM), penicillin (100 units/ml) and streptomycin ([…]) at 37° C. and 5% CO2. […]
Cell viability was determined using the 3-(4, 5-dimethylthiazol-2-yl)-2,5-diphenyltetrazolium (MTT, Sigma) assays. […] After shaking the plates for 30 min, the absorbance at 570 nm was measured (background subtraction at […]).

[3] = tested on: Huh7 cells; assay: Western blotting for hippo pathway phosphorylation (Mst1/2, LATS, Yap) in Huh7 cells; conditions: for Mst1/2 phosphorylation: Huh7, serum free 24 hours, as early as 5 minutes, sustained at 4 hours; for induction of Yap phosphorylation: Huh7, 12 h treatment
Method: Total protein extracts were obtained by homogenizing cells in total lysis buffer and analyzed by Western blotting as described recently (Oncotarget 2015; 6:41162-41179). […] Therefore, Applicants performed in vitro studies to test whether activation of P2 purinergic receptors may affect the hippo pathway and its downstream effectors. Huh7 cells—human derived hepatocellular carcinoma cells—maintained in serum free media for 24 hours—were treated with P2 purinergic receptor agonists. […] ADP treatment alone was also sufficient to induce LATs phosphorylation (2 h-1.7 fold, 4 h-1.5 fold) (FIG. 20B). […] Hippo kinases Mst1/2 and Lats1/2 work through a phosphorylation cascade to phosphorylate Yap, thereby retaining Yap in the cytoplasm. In spite of nucleotide-mediated Mst1/2 and Lats phosphorylation, ATP, ADP and ATPγS treatment was individually insufficient to induce Yap phosphorylation. […] Similarly, ATP treatment alone increased nuclear YAP protein expression (1.7 fold) (FIG. 20D).

[4] = tested on: Huh7 cells; assay: Western blotting of Huh7 nuclear fractions for YAP; conditions: 24 h treatment
Source text: Total protein extracts were obtained by homogenizing cells in total lysis buffer and analyzed by Western blotting as described recently (Oncotarget 2015; 6:41162-41179). Hippo kinases Mst1/2 and Lats1/2 work through a phosphorylation cascade to phosphorylate Yap, thereby retaining Yap in the cytoplasm. In spite of nucleotide-mediated Mst1/2 and Lats phosphorylation, ATP, ADP and ATPγS treatment was individually insufficient to induce Yap phosphorylation. […] Similarly, ATP treatment alone increased nuclear YAP protein expression (1.7 fold) (FIG. 20D).

[5] = tested on: Huh7 cells overexpressing P2X3; assay: BrdU incorporation in Huh7 cells transfected with P2X3 or pCMV6 vector
Method: Thereafter, these cells were treated with ATP+/-P2X3 antagonist, AF-353. […] Huh7 cells were maintained in MEM with 10% fetal bovine serum (FBS), 5% L-Glutamine and 5% Penicillin-streptomycin overnight. P2X3 or pCMV6 vector control plasmids (1 m) were transfected with Turbofectin 8.00 (Origene Technologies, Rockville, Md.) in MEM with 5% L-Glutamine. Media was […] hours, according to manufacturer's instructions. Formalin-fixed and paraffin embedded liver sections from HCC patients were analyzed by immunohistochemistry with anti-P2X3 antibody (Abcam, Cambridge, Mass.). HCC cells were grown on glass coverslips; BrdU (10 μM, Roche, Indianapolis, Ind.) was added to culture media for 1 h prior to fixation (cold acetone:methanol, 1:1) and stained using anti-BrdU antibody (DAKO, Carpinteria, Calif.) and DAB Peroxidase Substrate Kit (Vector Labs, Burlingame, Calif.), according to manufacturer's instructions. Counterstaining was done with hematoxylin. BrdU positive cells were counted and expressed as a percentage of the total number of cells in ten randomly selected high-power fields (20×) per coverslips.

[6] = transfected Huh7, ATP 100 μM, 24 h

| Compound | proliferation (BrdU incorporation) induced by ATP [1] [%] | increase in cell proliferation and viability (MTT) [2] [%] | Mst1/2 phosphorylation [3] | induction of Yap phosphorylation [3] | nuclear YAP protein expression compared to untreated cells [4] [fold] | ATP mediated proliferation in P2X3-overexpressing cells vs cells transfected with only pCMV6 [5, 6] | BrdU incorporation compared to the pCMV6 control [5, 6] | effect on P2X3 mediated increase in proliferation (BrdU) ([5]; P2X3-overexpressing Huh7, AF-353 5 μM, 24 h) | effect on ATP mediated increase in BrdU incorporation ([5]; transfected Huh7, AF-353 5 μM pre-treatment, ATP 100 μM 24 h) |
| --- | --- | --- | --- | --- | --- | --- | --- | --- | --- |
| Nc1ncnc2c1ncn2[C@@H]1O[C@H](COP(=O)(O)OP(=O)(O)OP(=O)(O)O)[C@@H](O)[C@H]1O [ATP] | 24 | 81 | significantly induced | insufficient | 1.7 | significantly higher | further increased |  |  |
| COc1cc(C(C)C)c(Oc2cnc(N)nc2N)cc1I [AF-353] |  |  |  |  |  |  |  | completely attenuated | significantly attenuated |
| Nc1ncnc2c1ncn2[C@@H]1O[C@H](COP(=O)(O)OP(=O)(O)OP(O)(O)=S)[C@@H](O)[C@H]1O [ATPγS] |  |  | significantly induced | insufficient | 2.8 |  |  |  |  |
